{"source": "paper PMC9427784", "about": "“Structural bases for aspartate recognition and polymerization efficiency of cyanobacterial cyanophycin synthetase” (Nature Communications, 2022)", "molecules": {"B1": {"name": "TeCphA1 (Trichodesmium erythraeum IMS101) (protein)", "chain": "MKILKLQTLRGPNYWSIHRHKLVVMRLDLEDLYEKYTSDIPGFYKGLTEVLPSLVEHLCSPGVKGGFLTRVEKGTLIGHVIEHVAIELQELAGMPVGFGRTRETSTTGVFQVVIEYENEQAGRYAARAAVRLCQSIVDTGTYPATELQQDLEDLKELKNQASLGPSTEAIVKEAEARGIPWTQLGARFMIQFGYGVNQKKIQATLSNQTGILGVELACDKEGTKRILKDAGVPVPRGTVARYFDELQDAIEYVGGYPIVIKPLDGNHGRGITIDVKNWQEAEEAYDLARKASKTKTVIVERYYTGKDHRVLVVNGKVVAVAERVPAHVVGNGKSTIAELIEETNRDPQRGDGHDNILTRITVDKSALDILGKQGYSIDSIPLKGKKCFLRATANLSTGGIAVDRTDEIHPENVWLLSRVAKIIGLDIAGIDVVTEDISQPLREVEGVIVEVNAAPGFRMHVAPSRGLARNVAGAVMDMLFPGSKNGRIPILSVTGTNGKTTTTRLLAHIIKQTGKVVGYTTTDGTYIGEYLAETGDNTGPQSAHLILSDPTVEVAVLETARGGILRSGLGFSSCEVGIVLNVTADHLGIGDIDTIEQLAKLKSVVAESVMPKGYAVLNAEDPLVAAMADRVKGQVAYFSMDPNNELLLRHTEAGGLAAIYENGYISILKGDWTLRIEKAVNVPITMAGKAPFMIANALAACLAVFTQGVKIEHIRKGLSTFVASVDQTPGRMNMFNMGSYHALVDYAHNPASYEALGGFVRNWPGKRIGVVGGPGDRRDEDFVSLGELAADIFDEIIIKEDDDTRGRPRGNAAELICQGVKQFLNGIKNSESKATYESILDETAAINTALDRAPIDGLVVILPESVNRAISLIEGRHVIQDIELLQDSQREPKDQEVLKSSI"}}, "key": {"[1]": {"molecular_target": "T1, TeCphA1 (Trichodesmium erythraeum, UniProt Q113V7)", "T1 construct": "gene Tery_1965; full-length, C-terminal His6 tag (pET-22b(+), NdeI/XhoI), E. coli BL21(DE3); D2 homotetramer; N (1-161), G (162-487), M (488-876) domains", "assay": "cryo-EM structure, […] Å (C1)", "format": "binding", "conditions": "complex with ATPγS, (β-Asp-Arg)4, Mg2+; 100 mM L-aspartate, pH 8.2; G domain site, seen in chain D"}, "[2]": {"molecular_target": "T1, TeCphA1", "assay": "cryo-EM structure, […] Å", "format": "binding", "conditions": "4 mM ATPγS, 20 mM MgCl2, pH 8.2; G and M domain sites; also in substrate-bound 7WAE (C1) and 7WAF (C2)"}, "[3]": {"molecular_target": "cyanophycin synthetase (CphA1) from Trichodesmium erythraeum IMS101 (Trichodesmium erythraeum IMS101)", "assay": "cryo-EM structure; single-particle cryo-EM of TeCphA1 in the apo, ATPγS-bound and substrate-bound states; 2-12 μM TeCphA1, Tris-HCl pH 8.0-8.2"}, "[4]": {"molecular_target": "T1, TeCphA1", "assay": "phosphate release, molybdenum blue colorimetry; Michaelis-Menten fit", "format": "biochemical", "conditions": "one substrate varied; L-aspartate 5 mM, L-arginine 0.5 mM, (β-Asp-Arg)4 2 mM; 20 mM MgCl2, pH 8.2, 30°C; two ATP sites (G and M domains)"}, "[5]": {"substrate": "N[C@@H](CC(=O)O)C(=O)O", "assay": "purified protein", "conditions": "one substrate varied, other substrates at ATP 4 mM, L-arginine 0.5 mM, (β-Asp-Arg)4 2 mM, 20 mM MgCl2, 20 mM KCl, pH 8.2, 30°C, positively cooperative, Hill fit"}}}
{"molecule": "N[C@@H](CC(=O)O)C(=O)O", "note": "[L-aspartate]", "values": [{"measurement": "cryo-EM structure, 2.64 Å (C1)", "setting": "[1]", "value": "the substrate aspartate was observed only in one protomer (chain D)"}]}
{"molecule": "Nc1ncnc2c1ncn2[C@@H]1O[C@H](COP(=O)(O)OP(=O)(O)OP(O)(O)=S)[C@@H](O)[C@H]1O", "note": "[ATPγS]", "values": [{"measurement": "cryo-EM structure, 2.96 Å", "setting": "[2]", "value": "7WAD for TeCphA1 bound with ATPγS"}]}
{"molecule": "cyanophycin synthetase (CphA1) from Trichodesmium erythraeum IMS101 (enzyme)", "values": [{"measurement": "stoichiometry N", "setting": "[3]", "value": 4}]}
{"molecule": "Nc1ncnc2c1ncn2[C@@H]1O[C@H](COP(=O)(O)OP(=O)(O)OP(=O)(O)O)[C@@H](O)[C@H]1O", "note": "[ATP]", "values": [{"measurement": "apparent Km", "setting": "[4]", "value": "we have determined the apparent Km value for ATP"}]}
{"molecule": "B1", "values": [{"measurement": "K0.5", "setting": "[5]", "value": "18.0 ± 1.1", "unit": "mM"}]}
